pKi: −log10 of the molar value.

A word on the pKi: it is −log10 of the Ki, conventionally taken in molar units.

One assay deals with T1, HCV NS3 protease domain (Hepatitis C virus genotype 1b, UniProt Q9WMX2).
T1 construct: The first 181 amino acids of NS3 (residues 1027-1207 of the viral polyprotein); hexa-histidine (C); made in house; host or cells: E. coli BL21/DE3 pLysS
Description: biochemical. Particulars: Enzyme Assay 1 (HCV NS3 Protease Domain Peptide Cleavage Assay) activity, apparent Ki class.

In assay [1] the target is T2, full-length hepatitis C viral protein NS3•4A (Hepatitis C virus genotype 1a, UniProt P27958).
T2 construct: hexa-histidine (N); made in house; host or cells: Sf9 insect cells (baculovirus, pVL1392)
In words: biochemical. Also on record: species or system HCV sub-type strain 1a. Particulars: Enzyme Assay 2 (HCV NS3 Peptide Cleavage Assay) activity, apparent Ki class.

With `CCC[C@H](NC(=O)[C@@H]1C[C@]2(CC(c3cc(Cl)cc4c3OCC4)=NO2)CN1C(=O)[C@@H](NC(=O)CC1CCCCC1)C(C)(C)C)C(=O)C(=O)NC1CC1` [Compound 134], the negative-log Ki (pKi) was 6.30 to 7.00 at HCV NS3 protease domain and > 7.00 in assay [1].

On to `CCC[C@H](NC(=O)[C@@H]1C[C@]2(CC(c3cccc(Cl)c3)=NO2)CN1C(=O)[C@@H](NC(=O)CC1CCCCC1)C(C)(C)C)C(=O)C(=O)NCc1nc2ccccc2s1` [Compound 17], for which the pKi is < 6.30 on HCV NS3 protease domain and 6.30 to 7.00 in assay [1].

Regarding `CCC[C@H](NC(=O)[C@@H]1CC2(CC(c3cccc(Cl)c3)=NO2)CN1C(=O)[C@H](Cc1ccc(OC)cc1)NC(C)=O)C(=O)C(=O)NC1CC1` (some centres unmarked) [Compound 88], the results for the pKi (on HCV NS3 protease domain; in assay [1]) were < 6.30 and 6.30 to 7.00, respectively.

For the molecule `CCC[C@H](NC(=O)[C@@H]1C[C@]2(CC(c3cccc(Cl)c3)=NO2)CN1C(=O)[C@@H](NS(=O)(=O)c1ccc(OC)cc1)C(C)CC)C(=O)C(=O)NC1CC1` (some centres unmarked) [Compound 534], the pKi (at HCV NS3 protease domain; in assay [1]) was < 6.30 in each case.

On to `CCC[C@H](NC(=O)[C@@H]1C[C@]2(CC(c3cccc(Cl)c3)=NO2)CN1C(=O)c1[nH]c2ccccc2c1CC(=O)N(CC)CC)C(=O)C(=O)NC1CC1` [Compound 420], for which the pKi (at HCV NS3 protease domain; in assay [1]) was < 6.30 each time.

In the case of `CCC[C@H](NC(=O)[C@@H]1C[C@]2(CC(c3cccc(Cl)c3)=NO2)CN1C(=O)C(NS(=O)(=O)c1ccc(F)cc1)C(C)C)C(=O)C(=O)NC1CC1` (some centres unmarked) [Compound 100], the negative-log Ki (pKi) (on HCV NS3 protease domain; in assay [1]) was < 6.30 throughout.

With `CC(C)(C)[C@H](NC(=O)CC1CCCCC1)C(=O)N1C[C@@]2(CC(c3cccc(Cl)c3)=NO2)C[C@H]1C(=O)N[C@@H](CC1CCC1)C(=O)C(=O)NC1CC1` [Compound 23], the negative-log Ki (pKi) at HCV NS3 protease domain is > 7.00; in assay [1], 6.30 to 7.00.

On to `CCC[C@H](NC(=O)[C@@H]1CC2(CC(c3cccc(Cl)c3)=NO2)CN1C(=O)[C@H](CCSCC)NC(C)=O)C(=O)C(=O)NC1CC1` (some centres unmarked) [Compound 54], for which the negative logarithm of the Ki (pKi) at HCV NS3 protease domain was < 6.30; in assay [1] it was 6.30 to 7.00.

With `CCC[C@H](NC(=O)[C@@H]1C[C@]2(CC(c3cccc(Cl)c3)=NO2)CN1C(=O)[C@@H](NC(=O)CC1CCCCC1)C(C)(C)C)C(=O)C(=O)N1CCC[C@H]1COC` [Compound 537], the pKi (on HCV NS3 protease domain; in assay [1]) was < 6.30 each time.

`CCC[C@H](NC(=O)[C@@H]1C[C@]2(CC(c3cccc(Cl)c3)=NO2)CN1C(=O)[C@@H](NC(=O)CC1CCCCC1)C(C)(C)C)C(=O)C(=O)NC1(c2ccccc2)CC1` [Compound 429]: the negative logarithm of the Ki (pKi) (on HCV NS3 protease domain; in assay [1]) was < 6.30 in each case.

On to `CCC[C@H](NC(=O)[C@@H]1C[C@]2(CC(c3cc(Cl)c4c(c3)CCC(C)(C)O4)=NO2)CN1C(=O)[C@@H](NC(=O)CC1CCCCC1)C(C)(C)C)C(=O)C(=O)NC1CC1` [Compound 74], for which the values for the pKi (on HCV NS3 protease domain; in assay [1]) were 6.30 to 7.00 and > 7.00, respectively.

On to `CCC[C@H](NC(=O)[C@@H]1C[C@]2(CC(c3cccc(Cl)c3)=NO2)CN1C(=O)[C@@H](NC(=O)CC1CCCCC1)C(C)(C)C)C(=O)C(=O)N1CC[C@@H](NC(C)=O)C1` [Compound 186], for which the negative-log Ki (pKi) (on HCV NS3 protease domain; in assay [1]) was < 6.30 in each case.

Turning to `CCC[C@H](NC(=O)[C@@H]1C[C@]2(CC(c3cccc(Cl)c3)=NO2)CN1C(=O)[C@@H](NC(=O)CC1CCCCC1)C(C)(C)C)C(=O)C(=O)N(C)C` [Compound 253], the negative logarithm of the Ki (pKi) (at HCV NS3 protease domain; in assay [1]) was < 6.30 each time.

With `CCC[C@H](NC(=O)[C@@H]1C[C@]2(CC(c3cccc(Cl)c3)=NO2)CN1C(=O)[C@@H](NC(=O)CC1CCCCC1)C(C)(C)C)C(=O)C(=O)NC1CCCC1` [Compound 372], the negative logarithm of the Ki (pKi) (on HCV NS3 protease domain; in assay [1]) was 6.30 to 7.00 throughout.

With `CCC[C@H](NC(=O)[C@@H]1C[C@]2(CC(c3cccc(Cl)c3)=NO2)CN1C(=O)C1(C(N)=O)CC1)C(=O)C(=O)NC1CC1` [Compound 227], the pKi (at HCV NS3 protease domain; in assay [1]) was < 6.30 in each case.

`CCC[C@H](NC(=O)[C@@H]1C[C@]2(CC(c3cccc(Cl)c3)=NO2)CN1C(=O)[C@@H](NC(=O)CC1CCCCC1)C(C)(C)C)C(=O)C(=O)N1CCOCC1` [Compound 410]: the pKi (at HCV NS3 protease domain; in assay [1]) was < 6.30 in each case.

`CCC[C@H](NC(=O)[C@@H]1C[C@]2(CC(c3cccc(Cl)c3)=NO2)CN1C(=O)[C@@H](NS(=O)(=O)c1ccc(OC)cc1)C(C)C)C(=O)C(=O)NC1CC1` [Compound 489]: the negative-log Ki (pKi) at HCV NS3 protease domain was < 6.30; in assay [1], 6.30 to 7.00.

As to `CC(C)(C)[C@H](NC(=O)CC1CCCCC1)C(=O)N1C[C@@]2(CC(c3cccc(Cl)c3)=NO2)C[C@H]1C(=O)N[C@@H](CC1CC1)C(=O)C(N)=O` [Compound 388], the pKi (at HCV NS3 protease domain; in assay [1]) was > 7.00 each time.

On to `CCC[C@H](NC(=O)[C@@H]1C[C@]2(CC(c3cccc(Cl)c3)=NO2)CN1C(=O)[C@@H](NC(=O)CC1CCCCC1)C(C)(C)C)C(=O)C(=O)NCc1csc(-c2ccccc2)n1` [Compound 176], for which the negative logarithm of the Ki (pKi) (on HCV NS3 protease domain; in assay [1]) was 6.30 to 7.00 in each case.

In the case of `CCC[C@H](NC(=O)[C@@H]1C[C@]2(CC(c3cccc(Cl)c3)=NO2)CN1C(=O)[C@@H](NC(=O)CC1CCCCC1)C(C)(C)C)C(=O)C(=O)NCc1ccccc1` [Compound 77], the negative logarithm of the Ki (pKi) on HCV NS3 protease domain was 6.30 to 7.00; in assay [1] it was > 7.00.

`CCC[C@H](NC(=O)[C@@H]1C[C@]2(CC(c3cc(Cl)ccc3OC)=NO2)CN1C(=O)[C@@H](NC(=O)CC1CCCCC1)C(C)(C)C)C(=O)C(=O)NC1CC1` [Compound 158]: the negative logarithm of the Ki (pKi) (on HCV NS3 protease domain; in assay [1]) was > 7.00 in each case.

Consider `CCC[C@H](NC(=O)[C@@H]1C[C@]2(CC(c3cc(Cl)c(OC)cc3OC)=NO2)CN1C(=O)[C@@H](NC(=O)CC1CCCCC1)C(C)(C)C)C(=O)C(=O)NC1CC1` [Compound 307], for which the negative logarithm of the Ki (pKi) on HCV NS3 protease domain was 6.30 to 7.00; in assay [1], > 7.00.

As for `CCC[C@H](NC(=O)[C@@H]1C[C@]2(CC(c3cc(Cl)cnc3OC)=NO2)CN1C(=O)[C@@H](NC(=O)CC1CCCCC1)C(C)(C)C)C(=O)C(=O)NC1CC1` [Compound 165], the pKi at HCV NS3 protease domain was 6.30 to 7.00; in assay [1], > 7.00.

For `CCC[C@H](NC(=O)[C@@H]1C[C@]2(CC(c3cccc(Cl)c3)=NO2)CN1C(=O)[C@H](CC(C)C)NC(C)=O)C(=O)C(=O)NC1CC1` [Compound 98], the negative logarithm of the Ki (pKi) on HCV NS3 protease domain is < 6.30; in assay [1], 6.30 to 7.00.

Take `CCC[C@H](NC(=O)[C@@H]1C[C@]2(CC(c3cccc(Cl)c3)=NO2)CN1C(=O)[C@@H](NC(=O)CC1CCCCC1)C(C)(C)C)C(=O)C(=O)NC1(C(=O)OC)CC1` [Compound 399]: the pKi (on HCV NS3 protease domain; in assay [1]) was < 6.30 each time.

With `CC(C)(C)[C@H](NC(=O)CC1CCOCC1)C(=O)N1C[C@@]2(CC(c3cccc(Cl)c3)=NO2)C[C@H]1C(=O)NC(CC1CCC1)C(=O)C(=O)NC1CC1` (some centres unmarked) [Compound 87], the pKi (on HCV NS3 protease domain; in assay [1]) was 6.30 to 7.00 in each case.

As to `CCC[C@H](NC(=O)[C@@H]1C[C@]2(CC(c3cccc(Cl)c3)=NO2)CN1C(=O)[C@@H](NC(=O)CC1(C)CCOCC1)C(C)(C)C)C(=O)C(=O)NC1CC1` [Compound 541], the figures for the pKi (at HCV NS3 protease domain; in assay [1]) were 6.30 to 7.00 and > 7.00, respectively.

`CCC[C@H](NC(=O)[C@@H]1C[C@]2(CC(c3cccc(Cl)c3)=NO2)CN1C(=O)[C@@H](NC(=O)CC1CCCCC1)C(C)(C)C)C(=O)C(=O)NCc1ccco1` [Compound 441]: the negative logarithm of the Ki (pKi) on HCV NS3 protease domain was < 6.30; in assay [1], 6.30 to 7.00.

For the origin of these results see US7964624B1, “Inhibitors of serine proteases” (priority 2005, dated 2011).
